This note sets out measurements from ChEMBL document CHEMBL5357077, “Synthesis and Biological Evaluation of β-Lactam Derivatives Targeting Speckle-Type POZ Protein (SPOP)” (ACS Med Chem Lett, 2024).

Each structure is given as a SMILES string. The source made the active and inactive calls. The calls are words filed in the database; no cut-off is given here.

For series [1], the target named is T1, Speckle-type POZ protein (Homo sapiens, UniProt O43791). The experiment in a line: Inhibition of GST-tagged human SPOP MATH domain (28 to 166 residues) expressed in Escherichia coli BL21 CodonPlus (DE3)-RIPL cells using FITC-LACDEVTSTTSSSTA peptide as substrate assessed as inhibition of substrate binding to SPOP preincubated with compound for 30 mins followed by substrate addition and measured immediately by fluorescence polarization assay. (In general: Fluorescence polarisation rises when a labelled molecule tumbles more slowly, as on binding a larger partner.)
T1 sequence (O43791 whole entry, the tested form may be a part): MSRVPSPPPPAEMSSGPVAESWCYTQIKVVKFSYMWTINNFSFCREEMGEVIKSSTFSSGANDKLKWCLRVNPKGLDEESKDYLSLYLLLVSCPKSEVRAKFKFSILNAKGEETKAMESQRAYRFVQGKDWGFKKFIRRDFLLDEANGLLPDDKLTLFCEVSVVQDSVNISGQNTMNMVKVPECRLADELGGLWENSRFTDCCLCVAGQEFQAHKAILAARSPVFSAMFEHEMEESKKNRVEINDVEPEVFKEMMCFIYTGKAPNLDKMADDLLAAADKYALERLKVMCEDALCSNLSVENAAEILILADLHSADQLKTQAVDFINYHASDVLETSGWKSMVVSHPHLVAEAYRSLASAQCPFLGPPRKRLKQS

Series [2] concerns the target T1, Speckle-type POZ protein. The experiment in a line: Potency index, ratio of 230D7 IC50 to test compound IC50 for inhibition of GST-tagged human SPOP MATH domain (28 to 166 residues) expressed in Escherichia coli BL21 CodonPlus (DE3)-RIPL cells using FITC-LACDEVTSTTSSSTA peptide as substrate assessed as inhibition of substrate binding to SPOP preincubated with compound for 30 mins followed by substrate addition and measured immediately by fluorescence polarization assay.

Series [3] addresses T1, Speckle-type POZ protein. The experiment in a line: Inhibition of GST-tagged human SPOP MATH domain (28 to 166 residues) expressed in Escherichia coli BL21 CodonPlus (DE3)-RIPL cells using Myc-DUSP7 as substrate assessed as disruption of SPOP binding to substrate at 1 to 40 uM incubated for 2 hrs by GST pull-down assay. The note with it: dose 1-40 µM.
The test system of the next series is A498. The experiment in a line: Inhibition of colony formation in human A498 cells at 0.4 to 50 uM incubated for 10 to 14 days by crystal violet staining based imaging analysis. It counts as functional, cell-based. The settings on record: dose 0.4-50 µM, time 10-14 day.
For series [4], the system named is 786-0. The experiment in a line: Inhibition of colony formation in human 786-0 cells at 0.4 to 50 uM incubated for 10 to 14 days by crystal violet staining based imaging analysis. Format: functional, cell-based. The settings on record: dose 0.4-50 µM, time 10-14 day.
For series [5], the target named is T1, Speckle-type POZ protein. The experiment in a line: Inhibition of GST-tagged human SPOP MATH domain (28 to 166 residues) expressed in Escherichia coli BL21 CodonPlus (DE3)-RIPL cells using Myc-PTEN as substrate assessed as disruption of SPOP binding to substrate at 1 to 40 uM incubated for 2 hrs by GST pull-down assay. The settings on record: dose 1-40 µM.

The subject of series [6] is 786-0. The experiment in a line: Antiproliferative activity against human 786-0 cells assessed as inhibition of cell proliferation measured after 72 hrs by Celltiter Glo luminescent cell viability assay. It counts as functional, cell-based. (ATP-based viability assays read luminescence as a measure of living cells.)
The next series concerns 769-P. The experiment in a line: Inhibition of colony formation in human 769-P cells at 0.4 to 50 uM incubated for 10 to 14 days by crystal violet staining based imaging analysis. Format: functional, cell-based. The note with it: dose 0.4-50 µM, time 10-14 day.
Another series has as its system OS-RC-2. The experiment in a line: Inhibition of colony formation in human OS-RC-2 cells at 0.4 to 50 uM incubated for 10 to 14 days by crystal violet staining based imaging analysis. It counts as functional, cell-based. The settings on record: dose 0.4-50 µM, time 10-14 day.
Series [7] addresses T1, Speckle-type POZ protein. The experiment in a line: Binding affinity to GST-tagged human SPOP MATH domain (28 to 166 residues) expressed in Escherichia coli BL21 CodonPlus (DE3)-RIPL cells assessed as equilibrium dissociation constant by SPR analysis. A general note: Surface plasmon resonance follows binding to a sensor surface in real time, without labels.
In a further series the test system is HK-2. The experiment in a line: Cytotoxicity against HK-2 cells assessed as inhibition of cell proliferation measured after 72 hrs by Celltiter Glo luminescent cell viability assay. Format: toxicity, cell-based. The note with it: human, hk-2, 72 h.

For orientation: IC50 means the concentration needed to halve the response being measured. For the compound `C=CC1=C(C(=O)O)N2C(=O)[C@@H](NC(=O)c3ccc(COC)o3)[C@H]2SC1`, the IC50 at Speckle-type POZ protein [1] was found to be 26 µM.
Take `C=CC1=C(C(=O)O)N2C(=O)[C@@H](NC(=O)c3ccc(CF)o3)[C@H]2SC1`: on Speckle-type POZ protein [1], the IC50 was 20.9 µM.
Same read-out and setting: with `CC1(C)S[C@@H]2[C@H](NC(=O)c3ccc(COc4ccc(Br)cc4Cl)o3)C(=O)N2[C@H]1C(=O)O` the figure was 20.5 µM; with `C=CC1=C(C(=O)O)N2C(=O)[C@@H](NC(=O)c3ccc(CO)o3)[C@H]2SC1`, > 100 µM.
On the same count and under the same terms, with `C=CC1=C(C(=O)O)N2C(=O)[C@@H](NC(=O)c3ccc(COc4ccc(Cl)cc4Br)o3)[C@H]2SC1` the figure was > 100 µM; with `C=CC1=C(C(=O)O)N2C(=O)[C@@H](NC(=O)c3ccc(COc4c(C)cc(Br)cc4Cl)o3)[C@H]2SC1`, > 100 µM; with `COCC1=C(C(=O)O)N2C(=O)[C@@H](NC(=O)c3ccc(COc4ccc(Br)cc4Cl)o3)[C@H]2SC1`, > 100 µM.
`O=C(O)C1=CCS[C@@H]2[C@H](NC(=O)c3ccc(COc4ccc(Br)cc4Cl)o3)C(=O)N12`: the IC50 at Speckle-type POZ protein [1] was found to be 42.1 µM.
For the compound `C=CC1=C(C(=O)O)N2C(=O)[C@@H](NC(=O)c3ccc(C(=O)OC)o3)[C@H]2SC1`, on Speckle-type POZ protein [1], the IC50 is > 100 µM.
Still for that read-out and setting: the same measure for `C=CC1=C(C(=O)O)N2C(=O)[C@@H](NC(=O)c3ccc(C)o3)[C@H]2SC1`: 20.7 µM; for `C=CC1=C(C(=O)O)N2C(=O)[C@@H](NC(=O)c3ccco3)[C@H]2SC1`: 81.2 µM; for `O=C(O)C1=C(CO)CS[C@@H]2[C@H](NC(=O)c3ccc(COc4ccc(Br)cc4Cl)o3)C(=O)N12`: > 100 µM.
Still for that read-out and setting: the same measure for `C=CC1=C(C(=O)O)N2C(=O)[C@@H](NC(=O)c3ccc(CNc4ccc(Br)cc4Cl)o3)[C@H]2SC1`: > 100 µM; for `C=CC1=C(C(=O)O)N2C(=O)[C@@H](NC(=O)c3ccc(COCC)o3)[C@H]2SC1`: > 100 µM.
On to `C=CC1=C(C(=O)O)N2C(=O)[C@@H](NC(=O)c3ccc(COc4ccccc4Cl)o3)[C@H]2SC1`, for which the IC50 on Speckle-type POZ protein [1] was > 100 µM.
The same measure, in the same setting: with `C=CC1=C(C(=O)O)N2C(=O)[C@@H](NC(=O)c3ccc(COc4ccc(Br)cc4Cl)s3)[C@H]2SC1` the figure was 15.1 µM.
Regarding `CC1=C(C(=O)O)N2C(=O)[C@@H](NC(=O)c3ccc(COc4ccc(Br)cc4Cl)o3)[C@H]2SC1`, the IC50 on Speckle-type POZ protein [1] is > 100 µM.
Same read-out and setting: with `C=CC1=C(C(=O)O)N2C(=O)[C@@H](NC(=O)c3ccc(COc4cccc(Cl)c4)o3)[C@H]2SC1` the figure was > 100 µM; with `C=CC1=C(C(=O)O)N2C(=O)[C@@H](NC(=O)c3ccc(COc4ccc(C#N)cc4)o3)[C@H]2SC1`, > 100 µM.
Still for that read-out and setting: with `CC(=O)OCC1=C(C(=O)O)N2C(=O)[C@@H](NC(=O)c3ccc(COc4ccc(Br)cc4Cl)o3)[C@H]2SC1` the figure was 12.5 µM; with `Cc1nnc(SCC2=C(C(=O)O)N3C(=O)[C@@H](NC(=O)c4ccc(COc5ccc(Br)cc5Cl)o4)[C@H]3SC2)s1`, 32.3 µM; with `C=CC1=C(C(=O)O)N2C(=O)[C@@H](NC(=O)c3ccc(COc4ccc(C#N)cc4Cl)o3)[C@H]2SC1`, 11.7 µM.
Still for that read-out and setting: with `O=C(O)C1=C(Cl)CS[C@@H]2[C@H](NC(=O)c3ccc(COc4ccc(Br)cc4Cl)o3)C(=O)N12` the figure was 53.3 µM.
With `C/C=C/C1=C(C(=O)O)N2C(=O)[C@@H](NC(=O)c3ccc(COc4ccc(Br)cc4Cl)o3)[C@H]2SC1`, at Speckle-type POZ protein [1], the IC50 was determined as 52.6 µM.
As for `C=CC1=C(C(=O)O)N2C(=O)[C@@H](NC(=O)c3ccc(COc4cccnc4)o3)[C@H]2SC1`, on Speckle-type POZ protein [1], the IC50 was found to be 74.4 µM.
In the case of `C=CC1=C(C(=O)O)N2C(=O)[C@@H](NC(=O)c3ccc(Br)o3)[C@H]2SC1`, the IC50 at Speckle-type POZ protein [1] is > 100 µM.
Regarding `C=CC1=C(C(=O)O)N2C(=O)[C@@H](NC(=O)c3ccc(COc4ccccc4)o3)[C@H]2SC1`, the IC50 on Speckle-type POZ protein [1] was found to be 6.33 µM. In addition, the Ratio IC50 on Speckle-type POZ protein [2] turned out to be 2.
What is called Kd is a measure of binding affinity in units of concentration. For the compound `C=CC1=C(C(=O)O)N2C(=O)[C@@H](NC(=O)c3ccc(CCl)o3)[C@H]2SC1`, the inhibition result at Speckle-type POZ protein [3], in the series with A498, in the series on 786-0 [4], at Speckle-type POZ protein [5], with 769-P and with OS-RC-2 was “Active” in each case. Further, the outcome with 786-0 [6] was Active. Besides, the IC50 on Speckle-type POZ protein [1] is 0.58 µM. Further, the Ratio IC50 at Speckle-type POZ protein [2] was 22. Also, at Speckle-type POZ protein [7], the Kd is 1.54 µM. Also, the Activity entry with HK-2 was “Non-Toxic”.
Turning to `C=CC1=C(C(=O)O)N2C(=O)[C@@H](NC(=O)c3ccc(COc4ccc(Br)cc4)o3)[C@H]2SC1`, the IC50 at Speckle-type POZ protein [1] is > 100 µM.
The same measure, in the same setting: with `C[C@H]1[C@H](NC(=O)c2ccc(COc3ccc(Br)cc3Cl)o2)C(=O)N1S(=O)(=O)O` the figure was > 100 µM.
Consider `C=CC1=C(C(=O)O)N2C(=O)[C@@H](NC(=O)c3ccc(COc4ccc(Br)cc4Cl)o3)[C@H]2SC1`, for which, at Speckle-type POZ protein [1], the IC50 was 5.35 µM. The Ratio IC50 on Speckle-type POZ protein [2] came out at 3.
For `C=CC1=C(C(=O)O)N2C(=O)[C@@H](NC(=O)c3ccc(COCc4ccc(Br)cc4Cl)o3)[C@H]2SC1`, on Speckle-type POZ protein [1], the IC50 was 66 µM.
Same read-out and setting: the same measure for `C=CC1=C(C(=O)O)N2C(=O)[C@@H](NC(=O)c3ccc(COc4ccc(F)cc4)o3)[C@H]2SC1`: 7.03 µM.
On the same count and under the same terms, with `C=CC1=C(C(=O)O)N2C(=O)[C@@H](NC(=O)c3ccc(C(=O)Nc4ccc(Br)cc4Cl)o3)[C@H]2SC1` the figure was 52.1 µM.
Same read-out and setting: with `C=CC1=C(C(=O)O)N2C(=O)[C@@H](NC(=O)c3ccc(Cl)o3)[C@H]2SC1` the figure was > 100 µM; with `C=CC1=C(C(=O)O)N2C(=O)[C@@H](NC(=O)c3ccc(CBr)o3)[C@H]2SC1`, > 100 µM.
As to `C=CC1=C(C(=O)O)N2C(=O)[C@@H](NC(=O)c3cccc(COc4ccc(Br)cc4Cl)c3)[C@H]2SC1`, the half-maximal inhibitory concentration (IC50) at Speckle-type POZ protein [1] was 30.1 µM.
Same read-out and setting: the same measure for `C=CC1=C(C(=O)O)N2C(=O)[C@@H](NC(=O)c3ccc(COc4ccc(F)cc4Cl)o3)[C@H]2SC1`: 98 µM.
Same read-out and setting: with `Cn1nnnc1SCC1=C(C(=O)O)N2C(=O)[C@@H](NC(=O)c3ccc(COc4ccc(Br)cc4Cl)o3)[C@H]2SC1` the figure was 34.6 µM.
